Results from patent US12215106B2, “Pharmaceutical compounds and therapeutic methods” (RUTGERS, THE STATE UNIVERSITY OF NEW JERSEY, priority 2018, dated 2025).
Structures can show the parent of a compound that is named as a salt. Where two headings read alike, the source gives them in different places. Marks after values point to notes of the source that are not given here.

Test: Plasma pharmacokinetics and brain distribution after single IV, IP and oral administration
Format: in vivo
Conditions: male, C57BL/6, mouse
Experimental: The objective of this study was to investigate the plasma pharmacokinetics and brain distribution of Compound (14 in male C57BL/6 mice following a single intravenous, intraperitoneal and oral administration. A group of sixty-three male mice were divided into three groups (Group 1: 2 mg/kg/IV; Group 2: 10 mg/kg/IP and Group 3: 10 mg/kg/PO) with each group comprising of twenty-one mice.
Animals in Group 1 were administered intravenously with Compound 15 solution formulation in 5% NMP, 5% Solutol HS-15, 30% PEG-400 and 60% Captisol (20% w/v) at 2 mg/kg dose. […] Considering mortality intravenous dose was reduced to 2 mg/kg.
Animals in Group 2 and 3 were administered with Compound 15 solution formulation in 5% NMP, 5% Solutol HS-15, 30% PEG-400 and 60% Captisol (20% w/v) at a dose of 10 mg/kg by intraperitoneal and oral route respectively.
(§1) Blood samples (approximately 60 μL) were collected under light isoflurane anesthesia from retro orbital plexus from a set of three mice at 0.08, 0.35, 1, 3, 6, 12 and 24 hr. Plasma samples were separated by centrifugation of whole blood and stored below −70±10° C. until bioanalysis. Immediately after collection of blood, brain samples were collected from set of three mice at each time point. Brain samples were homogenized using ice-cold phosphate buffer saline (pH-7.4) in a ratio of 2 (buffer):1(brain); and homogenates were stored below −70±10° C. until analysis. Total homogenate volume was three times the brain weight. All samples were processed for analysis by protein precipitation using acetonitrile and analyzed with fit-for-purpose LC/MS/MS method (LLOQ2.00 ng/mL for plasma and 3.00 ng/g for brain). Pharmacokinetic parameters were calculated using the non-compartmental analysis tool of Phoenix WinNonlin® (Version 7.0). Pharmacokinetic parameters of Compound 15 are summarized below.
The objective of this study was to investigate the plasma pharmacokinetics and brain distribution of Compound 16 in male C57BL/6 mice following a single intravenous, intraperitoneal and oral administration. A group of sixty-three male mice were divided into three groups (Group 1: 10 mg/kg/IV; Group 2: 10 mg/kg/IP and Group 3: 10 mg/kg/PO) with each group comprising of twenty-one mice.
Animals in Group 1 were administered intravenously with Compound 16 solution formulation in 5% NMP, 5% Solutol HS-15 and 90% normal saline at 10 mg/kg dose.
Animals in Group 2 and 3 were administered with Compound 16 solution formulation in 5% NMP, 5% Solutol HS-15 and 90% normal saline at a dose of 10 mg/kg by intraperitoneal and oral route respectively.
as §1, with “(LLOQ—1.00” for “(LLOQ2.00”, “16” for “15”
The objective of this study was to investigate the plasma pharmacokinetics and brain distribution of Compound 17 in male C57BL/6 mice following a single intravenous, intraperitoneal and oral administration. A group of sixty-three male mice were divided into three groups (Group 1: 2 mg/kg/IV; Group 2: 10 mg/kg/IP and Group 3: 10 mg/kg/PO) with each group comprising of twenty-one mice. […]

[1] = brain, ip, 10 mg/kg, IP 10 mg/kg, read-out: Brain-to-plasma ratio
[2] = brain, po, 10 mg/kg, PO 10 mg/kg, read-out: Brain-to-plasma ratio
[3] = brain/plasma, iv, 10 mg/kg, IV 10 mg/kg, read-out: Brain-to-plasma ratio
[4] = in vivo, ip, 10 mg/kg, Brain concentration, individual animal
[5] = in vivo, ip, 10 mg/kg, Mean brain conc.
[6] = in vivo, ip, 10 mg/kg, Mean plasma conc.
[7] = in vivo, ip, 10 mg/kg, Plasma concentration, individual animal
[8] = in vivo, iv, 10 mg/kg, Brain concentration, individual animal
[9] = in vivo, iv, 10 mg/kg, Mean brain conc.
[10] = in vivo, iv, 10 mg/kg, Mean plasma conc.
[11] = in vivo, iv, 10 mg/kg, Plasma concentration, individual animal
[12] = in vivo, po, 10 mg/kg, Brain concentration, individual animal
[13] = in vivo, po, 10 mg/kg, Mean brain conc.
[14] = in vivo, po, 10 mg/kg, Mean plasma conc.
[15] = in vivo, po, 10 mg/kg, Plasma concentration, individual animal

Cc1nc2ccccn2c1-c1csc(Nc2ccc3c(c2)OC(F)(F)O3)n1 [Compound 16, N-(2,2-difluorobenzo[d][1,3]dioxol-5-yl)-4-(2-methylimidazo[1,2-a]pyridin-3-yl)thiazol-2-amine hydrochloride]
Kp at 3 h (brain and plasma, iv, 10 mg/kg, IV 10 mg/kg, read-out: Brain-to-plasma ratio): 1.6 | Kp at 0.08 h [1]: 0.78 | Kp at 0.35 h [1]: 1.6 | Kp at 1 h [1]: 2.01 | Kp at 3 h [1]: 4.34 | Kp (brain, ip, 10 mg/kg, IP 10 mg/kg, read-out: brain-to-plasma ratio, range over time): 0.78 to 4.34 | Kp (brain, iv, 10 mg/kg, IV 10 mg/kg, read-out: brain-to-plasma ratio, range over time): 0.96 to 2.78 | Kp at 0.08 h [2]: 1.07 | Kp at 0.35 h [2]: 1.83 | Kp at 1 h [2]: 1.67 | Kp at 3 h [2]: 1.73 | Kp at 6 h (brain, po, 10 mg/kg, PO 10 mg/kg, 6 hr, read-out: Brain-to-plasma ratio): 1.81 | Kp (brain, po, 10 mg/kg, PO 10 mg/kg, read-out: brain-to-plasma ratio, range over time): 1.07 to 1.81 | Kp (brain, po, 10 mg/kg, summary data, read-out: Brain to plasma ratio following a single oral dose): 1.81 | Kp at 0.08 h [3]: 1.05 | Kp at 0.35 h [3]: 0.96 | Kp at 1 h [3]: 2.78 | Brain concentrations quantifiable up to (in vivo, ip, 10 mg/kg): up to 3 hr | Plasma concentrations quantifiable up to (in vivo, ip, 10 mg/kg): up to 3 hr | Brain concentration, individual animal (in vivo, ip, 10 mg/kg, 6 h): 0.00 ng/g | Plasma concentration, individual animal (in vivo, ip, 10 mg/kg, 6 h): 0 µg/mL | Brain concentration, individual animal (in vivo, ip, 10 mg/kg, 12 h): 0.00 ng/g | Plasma concentration, individual animal (in vivo, ip, 10 mg/kg, 12 h): 0 µg/mL | Brain concentration, individual animal (in vivo, ip, 10 mg/kg, 24 h): 0.00 ng/g | Plasma concentration, individual animal (in vivo, ip, 10 mg/kg, 24 h): 0 µg/mL | concentration at 6 h [4]: 0 ng/g | concentration at 12 h [4]: 0 ng/g | concentration at 24 h [4]: 0 ng/g | concentration at 0.08 h [5]: 558 ng/g | concentration at 0.35 h [5]: 680 ng/g | concentration at 1 h [5]: 159 ng/g | concentration at 3 h [5]: 6.21 ng/g | concentration at 6 h [5]: 0 ng/g | concentration at 12 h [5]: 0 ng/g | concentration at 24 h [5]: 0 ng/g | concentration at 0.08 h [6]: 0.713 µg/mL | concentration at 0.35 h [6]: 0.426 µg/mL | concentration at 1 h [6]: 0.0791 µg/mL | concentration at 3 h [6]: 0.00143 µg/mL | concentration at 6 h [6]: 0 µg/mL | concentration at 12 h [6]: 0 µg/mL | concentration at 24 h [6]: 0 µg/mL | concentration at 0.08 h [7]: 0.688 µg/mL | concentration at 0.35 h [7]: 0.391 µg/mL | concentration at 1 h [7]: 0.062 µg/mL | concentration at 6 h [7]: 0 µg/mL | concentration at 12 h [7]: 0 µg/mL | concentration at 24 h [7]: 0 µg/mL | Brain concentrations quantifiable up to (in vivo, iv, 10 mg/kg): up to 6 hr | Vss, fold more than normal volume of total body water (0.7 L/kg) (in vivo, iv, 10 mg/kg): 6.6 fold | Plasma concentration, individual animal (in vivo, iv, 10 mg/kg, 6 hr): 0 µg/mL | Brain concentration, individual animal (in vivo, iv, 10 mg/kg, 12 hr): 0.00 ng/g | Plasma concentration, individual animal (in vivo, iv, 10 mg/kg, 12 hr): 0 µg/mL | Brain concentration, individual animal (in vivo, iv, 10 mg/kg, 24 hr): 0.00 ng/g | Plasma concentration, individual animal (in vivo, iv, 10 mg/kg, 24 hr): 0 µg/mL | concentration at 12 hr [8]: 0 ng/g | concentration at 24 hr [8]: 0 ng/g | concentration at 0.08 h [9]: 1660 ng/g | concentration at 0.35 h [9]: 514 ng/g | concentration at 1 h [9]: 225 ng/g | concentration at 3 h [9]: 9.01 ng/g | concentration at 6 hr [9]: 5.13 ng/g | concentration at 12 hr [9]: 0 ng/g | concentration at 24 hr [9]: 0 ng/g | concentration at 0.08 h [10]: 1.58 µg/mL | concentration at 0.35 h [10]: 0.535 µg/mL | concentration at 1 h [10]: 0.0807 µg/mL | concentration at 3 h [10]: 0.00564 µg/mL | concentration at 6 hr [10]: 0 µg/mL | concentration at 12 hr [10]: 0 µg/mL | concentration at 24 hr [10]: 0 µg/mL | concentration at 0.08 hr [11]: 2.19 µg/mL | concentration at 0.35 hr [11]: 0.417 µg/mL | concentration at 1 hr [11]: 0.0609 µg/mL | concentration at 6 hr [11]: 0 µg/mL | concentration at 12 hr [11]: 0 µg/mL | concentration at 24 hr [11]: 0 µg/mL | Brain concentrations quantifiable up to (in vivo, po, 10 mg/kg): up to 12 hr | Plasma concentrations quantifiable up to (in vivo, po, 10 mg/kg): up to 6 hr | Brain concentration, individual animal (in vivo, po, 10 mg/kg, 0.08 h): 115.35 ng/g | Mean plasma conc. (in vivo, po, 10 mg/kg, 3 h): 3.35^f ng/mL | Plasma concentration, individual animal (in vivo, po, 10 mg/kg, 12 h): 0 µg/mL | Plasma concentration, individual animal (in vivo, po, 10 mg/kg, 24 h): 0 µg/mL | concentration at 0.08 h [12]: 221 ng/g | concentration at 24 h [12]: 0 ng/g | concentration at 0.08 h [13]: 187 ng/g | concentration at 0.35 h [13]: 254 ng/g | concentration at 1 h [13]: 48.9 ng/g | concentration at 3 h [13]: 5.78 ng/g | concentration at 6 h [13]: 4.52 ng/g | concentration at 12 h [13]: 3.9 ng/g | concentration at 24 h [13]: 0 ng/g | concentration at 0.08 h [14]: 0.175 µg/mL | concentration at 0.35 h [14]: 0.138 µg/mL | concentration at 1 h [14]: 0.0293 µg/mL | concentration at 3 h [14]: 0.00335 µg/mL | concentration at 6 h [14]: 0.0025 µg/mL | concentration at 12 h [14]: 0 µg/mL | concentration at 24 h [14]: 0 µg/mL | concentration at 12 h [15]: 0 µg/mL | concentration at 24 h [15]: 0 µg/mL | bioavailability (plasma, po, 10 mg/kg, PO 10 mg/kg, AUClast considered, read-out: Oral bioavailability, % F): 20% | bioavailability (plasma, po, 10 mg/kg, summary data, read-out: Oral bioavailability): 20% | Tmax (plasma, IP 10 mg/kg): 4.8 min | clearance (plasma, IV 10 mg/kg, read-out: CL, plasma clearance): 13.8 L/h/kg | half-life (plasma, IV 10 mg/kg, read-out: T1/2, terminal elimination half-life (converted)): 25.8 min | Tmax (plasma, PO 10 mg/kg): 4.8 min
